Legend:
[1] = test system: control sera (pooled serum of ten healthy LUMC hospital workers; commercial negative donor pooled serum from the Dutch bloodbank); assay type: binding, human; design: Binding of Control serum LUMC to linear peptides / Binding of Control serum Blood-bank to linear peptides / Binding of Control serum LUMC to looped peptides / Binding of Control Serum Blood-Bank to Looped peptides / Binding of Control serum LUMC to linear peptides of the protein M of SARS-CoV Urbani / Binding of Control serum Blood-bank to linear peptides of the protein M of SARS-CoV Urbani / Binding of Control serum LUMC to looped peptides of the protein M of SARS-CoV Urbani / Binding of Control Serum Blood-Bank to Looped peptides of the protein M of SARS-CoV Urbani: unit not given here
[2] = test system: rabbit serum obtained by immunizing a rabbit with the SARS-CoV strain Frankfurt 1; assay type: binding; design: Binding of a rabbit serum to linear peptides / Binding of a rabbit serum to looped peptides / Rabbit serum linear peptides / Rabbit serum looped peptides / Binding of a rabbit serum to linear peptides of protein N of SARS-CoV Urbani (Rabbit serum linear peptides) / Binding of a rabbit serum to looped/cyclic peptides of protein N of SARS-CoV Urbani (Rabbit serum looped peptides): unit not given here
[3] = test system: recombinant human anti-SARS-CoV antibody 03-018; assay type: binding; design: Binding of antibody 03-018 to linear peptides of the N protein of SARS-CoV Urbani / Binding of antibody 03-018 to looped/cyclic peptides of the N protein of SARS-CoV Urbani: unit not given here
[4] = test system: antibodies in sera from SARS patients (sera 1a, 1b, 2, 6, 37, 62, London, SARS-yellow, SARS-green); assay type: binding, human; design: Binding of serum 6 to linear peptides of protein X1 of SARS-CoV Urbani / Binding of serum 37 to linear peptides of protein X1 of SARS-CoV Urbani / Binding of serum 6 to looped/cyclic peptide (PEPSCAN-ELISA) / Binding of serum 37 to looped/cyclic peptide (PEPSCAN-ELISA) / Binding of serum 37 to looped/cyclic peptides of protein X1 of SARS-CoV Urbani / Binding of serum 6 to linear peptides of protein X2 / Binding of serum 37 to linear peptides of protein X2 / Binding of serum 37 to looped/cyclic peptides of protein X2 of SARS-CoV Urbani / Binding of serum 6 to linear peptides of protein M of SARS-CoV Urbani / Binding of serum 37 to linear peptides of protein M of SARS-CoV Urbani / Binding of serum 6 to looped/cyclic peptides of protein M of SARS-CoV Urbani / Binding of serum 37 to looped/cyclic peptides of protein M of SARS-CoV Urbani / Binding of serum 6 to linear peptides of protein X3 of SARS-CoV Urbani / Binding of serum 37 to linear peptides of protein X3 of SARS-CoV Urbani / Binding of serum 37 to looped/cyclic peptides of protein X3 of SARS-CoV Urbani / Binding of serum 6 to linear peptides of protein X4 of SARS-CoV Urbani / Binding of serum 37 to linear peptides of protein X4 of SARS-CoV Urbani / Binding of serum 37 to looped/cyclic peptides of protein X4 of SARS-CoV Urbani / Binding of serum 6 to linear peptides of protein X5 of SARS-CoV Urbani / Binding of serum 37 to linear peptides of protein X5 of SARS-CoV Urbani / Binding of serum 37 to looped/cyclic peptides of protein X5 of SARS-CoV Urbani / Binding of serum 6 to linear peptides of protein N of SARS-CoV Urbani / Binding of serum 37 to linear peptides of protein N of SARS-CoV Urbani / Binding of serum 6 to linear peptide (PEPSCAN-ELISA) / Binding of serum 1a to looped/cyclic peptides of protein N of SARS-CoV Urbani / Binding of serum 1b to looped/cyclic peptides of protein N of SARS-CoV Urbani / Binding of serum 2 to looped/cyclic peptides of protein N of SARS-CoV Urbani / Binding of serum 6 to looped/cyclic peptides of protein N of SARS-CoV Urbani / Binding of serum 37 to looped/cyclic peptides of protein N of SARS-CoV Urbani / Binding of serum 62 to looped/cyclic peptides of protein N of SARS-CoV Urbani / Binding of serum London to looped/cyclic peptides of protein N of SARS-CoV Urbani / Binding of serum SARS-green to looped/cyclic peptides of protein N of SARS-CoV Urbani: unit not given here

| Sequence | Binding of antibody 03-018 to linear peptides of the N protein of SARS-CoV Urbani [3] | Binding of antibody 03-018 to looped/cyclic peptides of the N protein of SARS-CoV Urbani [3] | Binding of serum 1a to linear peptides of protein N of SARS-CoV Urbani [4] | Binding of serum 1a to looped/cyclic peptides of protein N of SARS-CoV Urbani [4] | Binding of serum 1b to linear peptides of protein N of SARS-CoV Urbani [4] | Binding of serum 1b to looped/cyclic peptides of protein N of SARS-CoV Urbani [4] | Binding of serum 2 to linear peptides of protein N of SARS-CoV Urbani [4] | Binding of serum 2 to looped/cyclic peptides of protein N of SARS-CoV Urbani [4] | Binding of serum 6 to linear peptides of protein N of SARS-CoV Urbani [4] | Binding of serum 6 to looped/cyclic peptides of protein N of SARS-CoV Urbani [4] | Binding of serum 37 to linear peptides of protein N of SARS-CoV Urbani [4] | Binding of serum 37 to looped/cyclic peptides of protein N of SARS-CoV Urbani [4] | Binding of serum 62 to linear peptides of protein N of SARS-CoV Urbani [4] | Binding of serum 62 to looped/cyclic peptides of protein N of SARS-CoV Urbani [4] | Binding of serum London to linear peptides of protein N of SARS-CoV Urbani [4] | Binding of serum London to looped/cyclic peptides of protein N of SARS-CoV Urbani [4] | Binding of serum SARS-green to linear peptides of protein N of SARS-CoV Urbani [4] | Binding of serum SARS-green to looped/cyclic peptides of protein N of SARS-CoV Urbani [4] | Binding of serum SARS-yellow to linear peptides of protein N of SARS-CoV Urbani [4] | Binding of serum SARS-yellow to looped/cyclic peptides of protein N of SARS-CoV Urbani [4] | also measured |
| --- | --- | --- | --- | --- | --- | --- | --- | --- | --- | --- | --- | --- | --- | --- | --- | --- | --- | --- | --- | --- | --- |
| DQIGYYRRATRRVRG | 0.1 | 0.3 | 0.2 | 0.3 | 0.1 | 0.2 | 0.3 | 0.5 | 0.2 | 0.3 | 0.7 | 0.9 | 0.6 | 0.8 | 0.5 | 0.5 | 0.4 | 0.6 | 0.6 | 0.7 | Binding of Control Serum Blood-Bank to Looped peptides [1]: 0.8; Binding of Control serum Blood-bank to linear peptides [1]: 0.8; Binding of Control serum LUMC to linear peptides [1]: 0.7; Binding of Control serum LUMC to looped peptides [1]: 0.7; Recognition of the peptide by the rabbit serum [2]: recognized |
| EAQPLPQRQKKQPTV | 0.1 | 0.2 | 0.2 | 0.2 | 0.2 | 0.1 | 0.3 | 0.2 | 0.3 | 0.2 | 0.7 | 0.3 | 0.7 | 0.2 | 1.2 | 0.3 | 0.4 | 0.2 | 1.3 | 0.5 | Control Serum Blood-Bank Looped peptides [1]: 0.4; Control serum Blood-bank linear peptides [1]: 0.6; Control serum LUMC linear peptides [1]: 0.7; Control serum LUMC looped peptides [1]: 0.4; Binding of a rabbit serum to linear peptides of protein N of SARS-CoV Urbani (Rabbit serum linear peptides) [2]: 0.1; Binding of a rabbit serum to looped/cyclic peptides of protein N of SARS-CoV Urbani (Rabbit serum looped peptides) [2]: 0.0 |
| EGALNTPKDHIGTRN | 0.1 | 0.3 | 0.2 | 0.3 | 0.1 | 0.2 | 0.2 | 0.5 | 0.2 | 0.3 | 0.6 | 0.6 | 0.6 | 0.3 | 0.6 | 0.5 | 0.1 | 0.4 | 0.5 | 0.2 | Binding of Control Serum Blood-Bank to Looped peptides [1]: 0.7; Binding of Control serum Blood-bank to linear peptides [1]: 0.7; Binding of Control serum LUMC to linear peptides [1]: 0.6; Binding of Control serum LUMC to looped peptides [1]: 0.5; Binding of a rabbit serum to linear peptides of protein N of SARS-CoV Urbani (Rabbit serum linear peptides) [2]: 0.1; Binding of a rabbit serum to looped/cyclic peptides of protein N of SARS-CoV Urbani (Rabbit serum looped peptides) [2]: 0.0 |
| EGIVWVATEGALNTP | 0.1 | 0.2 | 0.3 | 0.3 | 0.2 | 0.2 | 0.3 | 0.4 | 0.2 | 0.2 | 0.8 | 0.7 | 0.7 | 0.6 | 0.5 | 0.3 | 0.4 | 0.4 | 0.6 | 0.6 | Binding of Control Serum Blood-Bank to Looped peptides [1]: 0.6; Binding of Control serum Blood-bank to linear peptides [1]: 0.8; Binding of Control serum LUMC to linear peptides [1]: 0.8; Binding of Control serum LUMC to looped peptides [1]: 0.6; Binding of a rabbit serum to linear peptides of protein N of SARS-CoV Urbani (Rabbit serum linear peptides) [2]: 0.1; Binding of a rabbit serum to looped/cyclic peptides of protein N of SARS-CoV Urbani (Rabbit serum looped peptides) [2]: 0.4 |

Reference: patent publication US20070128217A1 (priority 2003, published 2007)
